Test results taken from patent US20220364989A1, “METHOD FOR MEASURING PHOTOTOXICITY OR PHOTOALLERGY AND REAGENT FOR USE THEREIN” (FUJIFILM Corporation, priority 2018, published 2022).
Structures can show the parent of a compound that is named as a salt. Where two headings read alike, the source gives them in different places.

Experiments:
[1] = cited from earlier work
[2] = cited from earlier work; remark: listed apart in the source
[3] = NAC depletion under and without ultraviolet irradiation, HPLC with UV detection (281 nm); conditions: for NAC Depletion (%) without light irradiation: 25° C. 24 hours light-shielded; for NAC Depletion (%) without light irradiation / NAC Depletion (%) under light irradiation: test substance solution 1 mmol/L; for NAC Depletion (%) under light irradiation: 2,000 μW/cm^2 for 1 hour then 25° C. 23 hours
[4] = NAL depletion under and without ultraviolet irradiation, HPLC with fluorescence detection (284 nm excitation, 333 nm fluorescence); conditions: single compound
[5] = NAC depletion under and without ultraviolet irradiation, HPLC with fluorescence detection (284 nm excitation, 333 nm fluorescence); conditions: single compound
[6] = NAL depletion under and without ultraviolet irradiation, HPLC with UV detection (281 nm); conditions: for NAL Depletion (%) without light irradiation: 25° C. 24 hours light-shielded; for NAL Depletion (%) without light irradiation / NAL Depletion (%) under light irradiation: test substance solution 1 mmol/L; for NAL Depletion (%) under light irradiation: 2,000 μW/cm^2 for 1 hour then 25° C. 23 hours
[7] = Average score of NAC and NAL depletion and phototoxicity or photoallergy determination, fluorescence detection; conditions: under light irradiation, single compound

CC(CN1c2ccccc2Sc2ccccc21)N(C)C (stereo not shown) [No. 14, Promethazine HCl]
In vivo photoallergy ([1]; literature classification): Positive | In vivo phototoxicity ([2]; literature classification): Positive

c1ccc2nc3ccccc3cc2c1 [No. 34, Acridine]
In vivo photoallergy ([1]; literature classification): Negative | In vivo phototoxicity ([2]; literature classification): Positive

C=CC1CN2CCC1CC2C(O)c1ccnc2ccc(OC)cc12.Cl.O.O (stereo not shown) [compound 15]
Difference in depletion (under light irradiation - without light irradiation) NAC (%) [3]: 98.9% | NAC Depletion (%) without light irradiation [3]: 1.1% | NAC Depletion (%) under light irradiation [3]: 100.0% | Difference in depletion (under light irradiation - without light irradiation) NAL (%) [4]: 0.7% | NAL Depletion (%) ([4]; without light irradiation): 0.0% | Difference in depletion (under light irradiation - without light irradiation) NAC (%) [5]: 98.8% | NAC Depletion (%) ([5]; without light irradiation): 1.0% | Difference in depletion (under light irradiation - without light irradiation) NAL (%) [6]: 4.1% | NAL Depletion (%) without light irradiation [6]: 0.0% | NAL Depletion (%) under light irradiation [6]: 4.1%

COC(=O)c1ccccc1O [compound 43, Methyl salicylate]
In vivo photoallergy ([1]; reported in References 1 and 2): Negative | In vivo phototoxicity ([2]; reported in References 1 to 3): Negative

CC(O)C(=O)O (stereo not shown) [No. 59, Lactic acid]
In vivo photoallergy ([1]; literature classification): Negative

COc1cc(O)c(C(=O)c2ccccc2)cc1S(=O)(=O)O [No. 57, Sulisobenzone]
In vivo photoallergy ([1]; literature classification): Negative | In vivo phototoxicity ([2]; literature classification): Negative

CCCCCCCCCCCCOS(=O)(=O)[O-].[Na+] [compound 56, Sodium lauryl sulfate]
In vivo phototoxicity ([2]; in vivo): Negative

CNc1ccccc1C(=O)OC [No. 32, Methyl-N-methylanthranilate]
In vivo photoallergy ([1]; literature classification): Negative | In vivo phototoxicity ([2]; literature classification): Positive

NS(=O)(=O)c1cc2c(cc1Cl)NCNS2(=O)=O [No. 24, Hydrochlorothiazide]
In vivo photoallergy ([1]; literature classification): Positive

CCCCCCCCCCCC(=O)[O-].[Na+] [No. 55, Sodium laurate]
In vivo photoallergy ([1]; literature classification): Negative

O=C([O-])Cc1ccccc1Nc1c(Cl)cccc1Cl.[Na+] [compound 13]
Difference in depletion (under light irradiation - without light irradiation) NAC (%) [3]: 99.4% | NAC Depletion (%) without light irradiation [3]: 0.6% | NAC Depletion (%) under light irradiation [3]: 100.0% | Difference in depletion (under light irradiation - without light irradiation) NAL (%) [4]: 0.0% | NAL Depletion (%) ([4]; without light irradiation): 0.0% | In vivo photoallergy ([1]; reported in References 1 and 2): Positive | Difference in depletion (under light irradiation - without light irradiation) NAC (%) [5]: 100.0% | NAC Depletion (%) ([5]; without light irradiation): 0.0% | NAL Depletion (%) without light irradiation [6]: 0.0% | NAL Depletion (%) under light irradiation [6]: −4.1%

CN(C)C1C(O)=C(C(N)=O)C(=O)C2(O)C(O)=C3C(=O)c4c(O)cccc4C(C)(O)C3CC12 (stereo not shown) [compound 36]
NAC Depletion (%) without light irradiation [3]: −59.4% | NAC Depletion (%) under light irradiation [3]: 44.6% | Difference in depletion (under light irradiation - without light irradiation) NAL (%) [4]: 25.6% | NAL Depletion (%) ([4]; without light irradiation): 3.0% | In vivo photoallergy ([1]; reported in References 1 and 2): Negative | Difference in depletion (under light irradiation - without light irradiation) NAC (%) [5]: 43.4% | NAC Depletion (%) ([5]; without light irradiation): 56.6% | Difference in depletion (under light irradiation - without light irradiation) NAL (%) [6]: 22.5% | NAL Depletion (%) without light irradiation [6]: 5.1% | NAL Depletion (%) under light irradiation [6]: 27.6%

Nc1ccc(S(N)(=O)=O)cc1 [No. 27, Sulfanilamide]
In vivo photoallergy ([1]; literature classification): Positive

Cc1ccc2oc(=O)ccc2c1 [No. 2, 6-Methylcoumarin]
In vivo photoallergy ([1]; literature classification): Positive | In vivo phototoxicity ([2]; literature classification): Positive

c1ccc2cc3ccccc3cc2c1 [No. 35, Anthracene]
In vivo photoallergy ([1]; literature classification): Negative | In vivo phototoxicity ([2]; literature classification): Positive

CCCCCCCCCCCC(=O)O [No. 53, Lauric acid]
In vivo photoallergy ([1]; literature classification): Negative | In vivo phototoxicity ([2]; literature classification): Negative

[Na+].[O-]n1ccccc1=S [No. 26, Omadine (Na salt)]
In vivo photoallergy ([1]; in vivo): Positive

Oc1c(Cl)cc(Cl)cc1Sc1cc(Cl)cc(Cl)c1O [No. 5, Bithionol]
In vivo photoallergy ([1]; literature classification): Positive | In vivo phototoxicity ([2]; literature classification): Positive

c1ccc2nc3ccccc3cc2c1 [compound 34, Acridine]
In vivo photoallergy ([1]; reported in References 1 and 2): Negative | In vivo phototoxicity ([2]; reported in References 1 to 3): Positive

CCO [No. 50, Ethanol]
In vivo photoallergy ([1]; in vivo): Negative | Average score (%) [7]: 0.0% | In vivo phototoxicity ([2]; in vivo): Negative

NNC(=O)c1ccncc1 [No. 25, Isoniazid]
In vivo photoallergy ([1]; literature classification): Positive

CCn1cc(C(=O)O)c(=O)c2cc(F)c(N3CCNCC3)nc21 [No. 6, Enoxacin]
In vivo photoallergy ([1]; literature classification): Positive | In vivo phototoxicity ([2]; literature classification): Positive

COc1ccc2ccc(=O)oc2c1 [compound 30, 7-Methoxycoumarin]
In vivo photoallergy ([1]; reported in References 1 and 2): Positive

CN(C)CCCN1c2ccccc2Sc2ccc(Cl)cc21 [No. 1, Chlorpromazine HCl]
In vivo photoallergy ([1]; literature classification): Positive | In vivo phototoxicity ([2]; literature classification): Positive

COc1ccc2ccc(=O)oc2c1 [7-Methoxy coumarin]
In vivo photoallergy ([1]; literature classification): Positive

O=C(Nc1ccc(Cl)cc1)Nc1ccc(Cl)c(Cl)c1 [No. 20, Triclocarban]
In vivo photoallergy ([1]; literature classification): Positive | In vivo phototoxicity ([2]; literature classification): Negative

Oc1ccc(Cl)cc1Sc1cc(Cl)ccc1O [No. 22, Fenticlor]
In vivo photoallergy ([1]; literature classification): Positive

Cc1ccc(C=C2C(=O)C3(C)CCC2C3(C)C)cc1 (stereo not shown) [No. 39, 4′-Methylbenzylidene camphor]
In vivo photoallergy ([1]; in vivo): Negative | Average score (%) [7]: 2.0% | In vivo phototoxicity ([2]; in vivo): Negative

CNc1ccccc1C(=O)OC [compound 32, Methyl-N-methylanthranilate]
In vivo photoallergy ([1]; reported in References 1 and 2): Negative | In vivo phototoxicity ([2]; reported in References 1 to 3): Positive

CCCCCCCCCCCCCC(=O)OC(C)C [No. 52, Isopropyl myristate]
In vivo photoallergy ([1]; literature classification): Negative | In vivo phototoxicity ([2]; literature classification): Negative

Nc1ccc(N)cc1 [No. 11, p-Phenylenediamine]
In vivo photoallergy ([1]; literature classification): Positive

Nc1ccc(N)cc1 [compound 11, p-Phenylenediamine]
In vivo photoallergy ([1]; reported in References 1 and 2): Positive | In vivo phototoxicity ([2]; in vivo): Positive

CCCCCCCCCCCC(=O)O [compound 53, Lauric acid]
In vivo photoallergy ([1]; reported in References 1 and 2): Negative | In vivo phototoxicity ([2]; reported in References 1 to 3): Negative

O=C(c1ccccc1)c1ccccc1 [No. 4, Benzophenone]
In vivo photoallergy ([1]; in vivo): Positive

COc1c(C(C)(C)C)cc([N+](=O)[O-])c(C)c1[N+](=O)[O-] [No. 17, Musk ambrette]
In vivo photoallergy ([1]; literature classification): Positive | In vivo phototoxicity ([2]; literature classification): Negative

CC(=O)Oc1ccccc1C(=O)O [No. 40, Aspirin]
In vivo photoallergy ([1]; literature classification): Negative | In vivo phototoxicity ([2]; literature classification): Negative

c1ccc2cc3ccccc3cc2c1 [compound 35, Anthracene]
In vivo photoallergy ([1]; reported in References 1 and 2): Negative | In vivo phototoxicity ([2]; reported in References 1 to 3): Positive

C=C[C@H]1CN2CC[C@H]1C[C@H]2[C@H](O)c1ccnc2ccc(OC)cc12.Cl.O.O [No. 15, Quinine HCl (2H2O), reference compound]
NAL Depletion (%) ([4]; under light irradiation): 0.7% | NAC Depletion (%) ([5]; under light irradiation): 99.8%

O=C1NC(=O)C(c2ccccc2)(c2ccccc2)N1 [No. 45, Phenytoin]
In vivo photoallergy ([1]; literature classification): Negative | In vivo photoallergy ([1]; reported in References 1 and 2): Negative | In vivo phototoxicity ([2]; literature classification): Negative | In vivo phototoxicity ([2]; reported in References 1 to 3): Negative

COc1c2ccoc2cc2oc(=O)ccc12 [No. 31, 5-Methoxypsoralen]
In vivo photoallergy ([1]; literature classification): Negative | In vivo phototoxicity ([2]; literature classification): Positive

O=C(Nc1ccc(Br)cc1)c1cc(Br)cc(Br)c1O [No. 10, Tribromsalan]
In vivo photoallergy ([1]; in vivo): Positive | In vivo phototoxicity ([2]; in vivo): Positive

OCC(O)CO [No. 51, Glycerine]
In vivo phototoxicity ([2]; literature classification): Negative

CN(C)[C@@H]1C(=O)C(C(N)=O)=C(O)[C@@]2(O)C(=O)C3=C(O)c4c(O)cccc4[C@@](C)(O)[C@H]3C[C@@H]12 [No. 36, Tetracycline, reference compound]
NAL Depletion (%) ([4]; under light irradiation): 28.6% | In vivo photoallergy ([1]; literature classification): Negative | NAC Depletion (%) ([5]; under light irradiation): 100.0% | Average score (%) [7]: 64.3%

COC(=O)c1ccccc1O [No. 43, Methyl salicylate]
In vivo photoallergy ([1]; literature classification): Negative | In vivo phototoxicity ([2]; literature classification): Negative

O=C([O-])Cc1ccccc1Nc1c(Cl)cccc1Cl.[Na+] [No. 13, Diclofenac Na, reference compound]
NAL Depletion (%) ([4]; under light irradiation): 0.0% | In vivo photoallergy ([1]; literature classification): Positive | NAC Depletion (%) ([5]; under light irradiation): 100.0%

CCCCCCCCCCCCCCCCO [No. 49, Cetyl alcohol]
In vivo photoallergy ([1]; literature classification): Negative | In vivo phototoxicity ([2]; literature classification): Negative

CCOc1ccc2c(C)cc(=O)oc2c1 [No. 29, 4-Methyl-7-ethoxycoumarin]
In vivo photoallergy ([1]; literature classification): Positive

CCCCCCCCCCCCCC(=O)OC(C)C [compound 52, Isopropyl myristate]
In vivo photoallergy ([1]; reported in References 1 and 2): Negative | In vivo phototoxicity ([2]; reported in References 1 to 3): Negative

CC(C)OC(=O)C(C)(C)Oc1ccc(C(=O)c2ccc(Cl)cc2)cc1 [No. 38, Fenofibrate]
In vivo phototoxicity ([2]; literature classification): Positive

Cc1ncc(CO)c(CO)c1O.Cl [compound 9, Pyridoxine HCl]
In vivo photoallergy ([1]; in vivo): Positive | In vivo phototoxicity ([2]; in vivo): Positive

CCCCCCCCCCCC(=O)[O-].[Na+] [compound 55, Sodium laurate]
In vivo photoallergy ([1]; reported in References 1 and 2): Negative | In vivo phototoxicity ([2]; in vivo): Negative

CC(=O)c1c(C)c([N+](=O)[O-])c(C(C)(C)C)c([N+](=O)[O-])c1C [No. 33, Musk ketone]
In vivo photoallergy ([1]; literature classification): Negative | In vivo phototoxicity ([2]; literature classification): Positive

CCOC(=O)c1ccc(N)cc1 [No. 41, Benzocaine]
In vivo photoallergy ([1]; literature classification): Negative | In vivo phototoxicity ([2]; literature classification): Negative

CN1C(C(=O)Nc2ccccn2)=C(O)c2ccccc2S1(=O)=O [No. 8, Piroxicam]
In vivo photoallergy ([1]; literature classification): Positive | In vivo phototoxicity ([2]; literature classification): Positive
